From patent publication US8293734B2, “Nitroimidazooxazine and nitroimidazooxazole analogues and their uses” (priority 2009, dated 2012)
≈ marks a conversion by molar mass, not a printed value. Where two headings read alike, the source gives them in different places.

Key:
[1] = test system: Trypanosoma cruzi amastigotes (Tulahuen C2C4 strain); assay: Trypanosoma cruzi assay in infected L-6 cells; assay type: cell-based; conditions: L6, 96 h incubation, read-out: IC50 T. cruzi
Procedure: (§1) (c) Antiprotozoal screening. Compounds were evaluated for their activities against both Trypanosoma cruzi amastigotes and Leishmania donovani amastigotes (free or encapsulated in macrophages), according to the following protocols:
(i) Trypanosoma cruzi assay. L-6 cells (2×10^3) in medium (100 μL of RPMI 1640 supplemented with 2 mM L-glutamine plus 10% heat inactivated fetal calf serum) were seeded in 96-well microtitre plates (Costar™) and incubated at 37° C. (5% CO2) for 1d. A suspension (50 μL) of Trypanosoma cruzi trypomastigotes (5×10^3 of Tulahuen C2C4 strain, containing the β-galactosidase gene) was added, and the cells were incubated at 37° C. (5% CO2) for a further 48 h to establish the infection. The medium was removed and replaced by fresh medium and the infected cells were then incubated at 37° C. (5% CO2) for 96 h in either medium alone or in the presence of serial (3-fold) dilutions of test compounds (initially prepared as 10 mg/mL stock solutions in DMSO and diluted into medium). Benznidazole was employed as a standard in each assay. Following incubation, chlorophenol red glycoside (100 mM) in 0.1% Nonidet P40/PBS (50 μL) was added, and (after 6 h) the absorbance at 540 nm was measured and used to calculate the IC50 values.

[2] = test system: replicating Mycobacterium tuberculosis; assay: MABA microplate Alamar blue assay, MIC (aerobic); assay type: cell-based; conditions: 192 h
VERO cells (CCL-81) = assay: Mammalian cell cytotoxicity assay (tetrazolium dye); assay type: cell-based; conditions: Chlorocebus sabaeus, read-out: IC50 VERO
Procedure: (b) Mammalian cell cytotoxicity assay. This was assessed against VERO cells (CCL-81, American Type Culture Collection) in a 72 h exposure, using a tetrazolium dye assay (Falzari et al., 2005).

[3] = test system: L. donovani amastigotes (MHOM-ET-67/L82) in mouse macrophages; assay: Leishmania donovani infected macrophage assay; assay type: cell-based; conditions: 96 h incubation, read-out: IC50 L. donovani macro
Procedure: as §1
(iii) Leishmania donovani infected macrophage assay. Freshly harvested mouse macrophages in medium (RPMI 1640 plus 10% heat inactivated fetal calf serum) were incubated at 37° C. (5% CO2) for 24 h and then infected (1:3 macrophages to amastigotes) with an axenic L. donovani amastigote culture (MHOM-ET-67/L82) in medium (SM, pH 5.4 plus 10% heat inactivated fetal calf serum). The infected macrophages were seeded at a density of 1.2×10^6/mL (by diluting in RPMI+10% FCS) in 16-well slides (Lab-tek™) and incubated at 37° C. (5% CO2) for 24 h. The medium was removed and replaced by fresh medium (RPMI 1640+10% FCS), and this was repeated following mixing. The infected macrophages were then incubated at 37° C. (5% CO2) for 96 h in either medium alone or in the presence of serial (3-fold) dilutions of test compounds (initially prepared as 10 mg/mL stock solutions in DMSO and diluted into medium). Miltefosin was employed as a standard in each assay. […], the slides were fixed (5 min in 100% MeOH) and stained (10% Giemsa, 10 min). The ratio of infected to uninfected macrophages was determined by microscopic examination, and the IC50 values were then calculated by linear regression analysis.

[4] = test system: M. tuberculosis bacteria in the non-replicating state; assay: LORA low-oxygen-recovery assay, MIC (anaerobic); assay type: cell-based; conditions: Mycobacterium tuberculosis, 264 h; 11 day luminescence-based low-oxygen-recovery assay
[5] = test system: Axenically grown L. donovani amastigotes (MHOM-ET-67/L82); assay: Axenic Leishmania donovani assay; assay type: cell-based; conditions: 70 h incubation, read-out: IC50 L. donovani axen
Procedure: as §1
(ii) Axenic Leishmania donovani assay. Axenically grown L. donovani amastigotes (MHOM-ET-67/L82) from a healthy culture in log phase were seeded at a density of 1×10^6/mL medium (SM, pH 5.4 plus 10% heat inactivated fetal calf serum) in 96-well microtitre plates (Costar™) and incubated at 37° C. (5% CO2) for 70 h in either medium alone or in the presence of serial (3-fold) dilutions of test compounds (initially prepared as 10 mg/mL stock solutions in DMSO and diluted into medium). Miltefosin was employed as a standard in each assay. After incubation, Resazurin fluorescent dye was added to each well, and incubation was continued for an additional 2 h. The IC50 values were determined from measurements of the fluorescence data.

Compound	IC50 [1]	melting point	MIC [2]	IC50 (VERO cells (CCL-81); 72 h exposure)	IC50 [3]	MIC [4]	IC50 [5]	IC50 (VERO cells (CCL-81); 72 h)
CC1(COCc2ccc(OCc3ccccc3)cc2)CCn2cc([N+](=O)[O-])nc2O1 (stereo not shown) [Compound 54, 7-({[4-(benzyloxy)benzyl]oxy}methyl)-7-methyl-2-nitro-6,7-dihydro-5H-imidazo[2,1-b][1,3]oxazine]	0.74 µg/mL (≈ 1.81 µM)	109 to 111 °C	0.2 µM (≈ 0.0819 µg/mL)	> 128 µM	0.095 µg/mL (≈ 0.232 µM)	1.4 µM (≈ 0.573 µg/mL)	0.047 µg/mL (≈ 0.115 µM)	
O=[N+]([O-])c1cn2c(n1)OC(COCc1ccc(-c3ccc(OC(F)(F)F)cc3)cc1)CC2 (stereo not shown) [Compound 51, 2-nitro-7-({[4′-(trifluoromethoxy)[1,1′-biphenyl]-4-yl]methoxy}methyl)-6,7-dihydro-5H-imidazo[2,1-b][1,3]oxazine]	15 µg/mL (≈ 33.4 µM)	159 to 161 °C	0.055 µM (≈ 0.0247 µg/mL)	> 128 µM	0.17 µg/mL (≈ 0.378 µM)	1.5 µM (≈ 0.674 µg/mL)	0.046 µg/mL (≈ 0.102 µM)	
O=[N+]([O-])c1cn2c(n1)OCC(COCc1ccc(-c3ccc(OC(F)(F)F)cc3)cc1)C2 (stereo not shown) [Compound 75, 2-nitro-6-({[4′-(trifluoromethoxy) [1,1′-biphenyl]-4-yl]methoxy}methyl)-6,7-dihydro-5H-imidazo[2,1-b][1,3]oxazine]	0.47 µg/mL (≈ 1.05 µM)	135 to 138 °C	0.3 µM (≈ 0.135 µg/mL)		0.67 µg/mL (≈ 1.49 µM)	> 128 µM	0.2 µg/mL (≈ 0.445 µM)	> 128 µM
CC1(COc2ccc(OCc3ccccc3)cc2)Cn2cc([N+](=O)[O-])nc2O1 (stereo not shown) [Compound 7, 2-{[4-(benzyloxy)phenoxy]methyl}-2-methyl-6-nitro-2,3-dihydroimidazo[2,1-b][1,3]oxazole]	3.2 µg/mL (≈ 8.39 µM)	162 to 165 °C	0.53 µM (≈ 0.202 µg/mL)		0.4 µg/mL (≈ 1.05 µM)	24 µM (≈ 9.15 µg/mL)	0.016 µg/mL (≈ 0.042 µM)	
O=[N+]([O-])c1cn2c(n1)OC(COCc1cccc(OC(F)(F)F)c1)CC2 (stereo not shown) [Compound 47, 2-nitro-7-({[3-(trifluoromethoxy)benzyl]oxy}methyl)-6,7-dihydro-5H-imidazo[2,1-b][1,3]oxazine]	1.1 µg/mL (≈ 2.95 µM)	100 to 112 °C	3.8 µM (≈ 1.42 µg/mL)		0.084 µg/mL (≈ 0.225 µM)	15 µM (≈ 5.6 µg/mL)	0.041 µg/mL (≈ 0.11 µM)	
O=[N+]([O-])c1cn2c(n1)OCC(COCc1cccc(-c3ccc(OC(F)(F)F)cc3)c1)C2 (stereo not shown) [Compound 74, 2-nitro-6-({[4′-(trifluoromethoxy)[1,1′-biphenyl]-3-yl]methoxy}methyl)-6,7-dihydro-5H-imidazo[2,1-b][1,3]oxazine]	0.94 µg/mL (≈ 2.09 µM)	78 to 80 °C	0.22 µM (≈ 0.0989 µg/mL)	> 128 µM	0.54 µg/mL (≈ 1.2 µM)	2.9 µM (≈ 1.3 µg/mL)	0.16 µg/mL (≈ 0.356 µM)	
O=[N+]([O-])c1cn2c(n1)OCC(COCc1cccc(OC(F)(F)F)c1)C2 (stereo not shown) [Compound 71, 2-nitro-6-({[3-(trifluoromethoxy)benzyl]oxy}methyl)-6,7-dihydro-5H-imidazo[2,1-b][1,3]oxazine]	0.56 µg/mL (≈ 1.5 µM)	60 to 61 °C	0.33 µM (≈ 0.123 µg/mL)	> 128 µM	0.65 µg/mL (≈ 1.74 µM)	15 µM (≈ 5.6 µg/mL)	0.2 µg/mL (≈ 0.536 µM)	
O=[N+]([O-])c1cn2c(n1)OC(COCc1ccc(OCc3ccccc3)cc1)CC2 (stereo not shown) [Compound 49, 7-({[4-(benzyloxy)benzyl]oxy}methyl)-2-nitro-6,7-dihydro-5H-imidazo[2,1-b][1,3]oxazine]	0.55 µg/mL (≈ 1.39 µM)	151 to 153 °C		> 128 µM	0.065 µg/mL (≈ 0.164 µM)		0.048 µg/mL (≈ 0.121 µM)	
